Among the data in the supplement of paper PMC10307832 are relative viability values, retold here.

Holding throughout (assay): relative viability (nuclei count vs DMSO), 5 days (fraction); higher = more cells survive
Compound in the experiment “VE-821 + Pictilisib”: CS(=O)(=O)c1ccc(-c2cnc(N)c(C(=O)Nc3ccccc3)n2)cc1 [VE-821] + CS(=O)(=O)N1CCN(Cc2cc3nc(-c4cccc5[nH]ncc45)nc(N4CCOCC4)c3s2)CC1 [Pictilisib] (partner 1 µM)
An outline of the steps: (§1)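 Lung cancer cell lines in 1536-well plates were dosed by pin tool the day after seeding, either with one drug alone or with a fixed anchor-drug dose plus five library-drug doses (not always all listed) in √10 steps. After 5 days, cells were fixed and their nuclei stained in one step (final 0.05% Triton X-100, 1% formaldehyde, 1 ug/ml Hoechst), then counted on 4× images. Relative viability is the nuclei count in treated wells divided by that in vehicle wells. Values are medians of duplicate plates.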

Compound in the experiment “VE-821 + Decitabine”: CS(=O)(=O)c1ccc(-c2cnc(N)c(C(=O)Nc3ccccc3)n2)cc1 [VE-821] + Nc1ncn([C@H]2C[C@H](O)[C@@H](CO)O2)c(=O)n1 [Decitabine] (partner 2 µM)
An outline of the steps: as §1

Compound in the experiment “Ruxolitinib + Luminespib”: N#CC[C@H](C1CCCC1)n1cc(-c2ncnc3[nH]ccc23)cn1 [Ruxolitinib] + CCNC(=O)c1noc(-c2cc(C(C)C)c(O)cc2O)c1-c1ccc(CN2CCOCC2)cc1 [Luminespib] (partner 0.01 µM)
An outline of the steps:
as §1

Compound in the experiment “Ruxolitinib + Decitabine”: N#CC[C@H](C1CCCC1)n1cc(-c2ncnc3[nH]ccc23)cn1 [Ruxolitinib] + Nc1ncn([C@H]2C[C@H](O)[C@@H](CO)O2)c(=O)n1 [Decitabine] (partner 2 µM)
An outline of the steps: as §1

Take UMC-11: the relative viability with VE-821 + Pictilisib (first compound 0.08 µM) is 0.933; in the experiment with VE-821 + Pictilisib (first compound 0.253 µM) it was 0.781; in the experiment with VE-821 + Pictilisib (first compound 0.8 µM), 0.613; with VE-821 + Pictilisib (first compound 2.53 µM), 0.84; with VE-821 + Pictilisib (first compound 8 µM), 0.4; with VE-821 + Decitabine (first compound 0.08 µM) it was 0.687. The relative viability was 0.617 with VE-821 + Decitabine (first compound 0.253 µM); 0.583 with VE-821 + Decitabine (first compound 0.8 µM); 0.664 in the experiment with VE-821 + Decitabine (first compound 2.53 µM); 0.479 with VE-821 + Decitabine (first compound 8 µM); 1.04 with Ruxolitinib + Luminespib (first compound 0.08 µM); 1.03 in the experiment with Ruxolitinib + Luminespib (first compound 0.253 µM). The relative viability in the experiment with Ruxolitinib + Luminespib (first compound 0.8 µM) worked out at 1.26; in the experiment with Ruxolitinib + Luminespib (first compound 2.53 µM) it was 1.1; with Ruxolitinib + Luminespib (first compound 8 µM), 0.978; with Ruxolitinib + Decitabine (first compound 0.08 µM) it was 0.745; in the experiment with Ruxolitinib + Decitabine (first compound 0.253 µM), 0.62; in the experiment with Ruxolitinib + Decitabine (first compound 0.8 µM) it was 0.797. The relative viability with Ruxolitinib + Decitabine (first compound 2.53 µM) turned out to be 0.433; with Ruxolitinib + Decitabine (first compound 8 µM) it was 0.627.
